This is an account of results in patent US6916843B1, “Anti-inflammatory actions of cytochrome P450 expoxygenase-derived eicosanoids” (The United States of America as represented by the …, priority 1999, dated 2005).

“Also recorded” adds a separate entry of the source. Ends that are not written are not given here.

Test [1] has as its system bovine aortic endothelial cells (BAECs). The test can be described thus: Hypoxia-reoxygenation-induced cell injury in BAECs (cell number, LDH release, trypan blue). The conditions noted are these: for hypoxia-reoxygenation-induced cell injury, epoxide hydrolase inhibitors: DCU 10 μmol/L and elaidamide 10 μmol/L added together prior to hypoxia. It is filed as cell-based. How it is done: Effects of P450-derived arachidonic acid metabolites on hypoxia-reoxygenalion-induced injury in BAECs. BAECs, either untransfected, or 48 hours after transfection with pcDNA3.1/GFP or pcDNA3.1/CYP2J2, or 10 min after treatment with eicosanoids, epoxide hydrolase inhibitors or vehicle, were exposed to hypoxia (95% nitrogen plus 5% carbon dioxide) for 24 hours, followed by reoxygenation (95% air plus 5% carbon dioxide) for 4 hours using an environmental chamber within a 37° C. incubator. Cells maintained under continuous (28 hours) normoxic conditions served as controls.
EETs were prepared by total chemical synthesis as previously described (Corey el al., 102 J. Am. Chem. Soc. 1433-1435 (1980), Falck et al., 23 Tetrahedron Lett. 1755-1756 (1982)). DHETs were prepared by chemical hydration of EETs as described by Capdevila et al., 187 Methods Enzymol. 386-394 (1990). Synthetic EETs and DHETs were purified by reverse-phase HPLC prior to use. BAECs, grown to ˜85% confluency, were treated with either synthetic [11,12]-EET, [11,12]-DHET, or [14,15]-EET in ethanol vehicle (1 μmol/L each, final concentration) for 10 min prior to exposure to hypoxia-reoxygenation. […] Cells treated with vehicle alone served as controls.
After hypoxia-reoxygenation, the cell number was determined using a hemocytometer and the degree of cell injury was assessed by measuring lactate dehydrogenase release into the culture medium using the CytoTox 96 Non-Radioactive Cytotoxicity Assay Kit (Promega, Madison, Wis.) and by counting the number of trypan blue dye stained cells. Data are expressed as a percentage of values obtained from control cells maintained under normoxic conditions.
On the technique in general: LDH leaks from cells whose membrane has failed.

Another test relates to VCAM-1 expression. In words: Cell-surface enzyme immunoassay of cytokine-induced VCAM-1 expression in endothelial cells. The conditions noted are these: KCa channel blocker 100 nM. It is filed as cell-based, human. Here is the method: FIG. 2 is a set of bar graphs of cell-surface enzyme immunoassays. […] The difference between treatment with TNF-α alone and in the presence of [11,12]-EET were statistically significant (*p<0.05, **p<0.01), OD, optical density. […] After stimulation with TNF-α (10 ng/ml) in the presence or absence of EET, promoter activity was determined relative to basal activity. *p<0.01 vs. TNF-α alone.
To determine the biological effects of EETs, we treated tumor necrosis factor alpha (TNF-α)-stimulated human endothelial cells with physiological relevant concentrations (1-100 nM) of [5,6]-EET, [8,9]-EET, [11,12]-EET, [14,15]-EET, [11,12]-DHET.

With `O=C(NC1CCCCC1)NC1CCCCC1` [DCU, dicyclohexylurea, reference compound], the “hypoxia-reoxygenation-induced cell injury, epoxide hydrolase inhibitors” value in test [1] was “significantly attenuates”; in test [1] (listed as dicyclohexylurea) it was “limits”.
For `CCCCC/C=C\CC(O)C(O)C/C=C\C/C=C\CCCC(=O)O` (stereo not drawn) [[11,12]-DHET], in test [1] (1 μmol/L, added 10 min prior to hypoxia (24 h hypoxia, 4 h reoxygenation)), the “hypoxia-reoxygenation-induced cell injury, number of trypan blue stained cells” value is “active in attenuating; also recorded: significantly attenuates”.
Take `CCCCCCCC/C=C/CCCCCCCC(N)=O` [elaidamide, reference compound]: in test [1], the “hypoxia-reoxygenation-induced cell injury, epoxide hydrolase inhibitors” value is recorded as “limits; also recorded: significantly attenuates”.
charybodotoxin [reference compound]: the “block of the inhibitory effect of [11,12]-EET on TNF-α-induced VCAM-1 expression” value with VCAM-1 expression is “did not block”.
The same measure, in the same setting: next, “iberiotoxin (QFTDVDCSVSKECWSVCKDLFGVDRGKCMGKKCRCYQ; not fully specified (residue 1, bridges); cysteine pairing not given here; UniProt P24663 1-37, looked up) [reference compound]”: “did not block”.
